# Like-named read-outs stand apart in the source and are kept apart here.
# Tests used:
# [1] = tested on: [3H]-LCGA-17 binding site in rat brain membranes (putative α2δ); experiment: [3H]-LCGA-17 radioligand competition binding assay
# Danio rerio [2] = experiment: Novel tank test (NTT); type: in vivo; details: for NTT. Time spent in upper half of tank, Median: 10 min after injection, 5 min; for NTT. Time spent in upper half of tank, Median / NTT. Distance traveled, Median: exp group
# Protocol: (§1) Control groups were treated in parallel with vehicle alone. For drug injection, the fish were anesthetized briefly by placing them in 10°C water. The vehicle controls were tested in parallel.
# (§2) Behavioral testing was initiated 10 min after drug injection, starting with the novel tank test (NTT), followed immediately thereafter by the light–dark box (LDB) and the social preference test (SPT). The NTT was adapted from [Maximino et al. (2013)] with the behavior video-recorded and the data processed using EthoVision XT14 (Noldus). The distance traveled, speed, number of visits to the bottom, middle and top thirds of the aquarium, respectively, and the times spent in each of these zones during the initial 5 min in the tank were recorded. A decreased time spent at the surface of the NTT apparatus reflects a reduction in exploratory behavior or increased hiding motivation ([Sackerman et al., 2010]). The behavior in the LDB ([Maximino et al., 2011]) and SPT ([Parker et al., 2014]) was video recorded and processed using RealTimer (Open Science LCC, Russia). The fish were added to the center zone of a three-zone aquarium and allowed to adapt for 1–2 min before removal of the septa separating the center from the flanking zones. The time spent and the number of visits to the light and dark flanking zones and the latency to enter the lit zone were recorded during a 5-min session. Stress of fish is associated with increased time spent in the dark compartment (scototaxis) ([Maximino et al., 2011]). For the SPT, the residence time and the number of visits to the three equally sized zones (near the shoal, in the center zone of the aquarium, and near the wall opposite to the shoal) were assessed during a 5-min session. Increased shoal preference (shoaling reflex) is thought to represent a protective response to a predator ([Nguyen et al., 2014]). All behavioral testing was done in the light phase using 500 lux (NTT, LDB) or 200 lux (SPT) illumination.
# Danio rerio [3] = experiment: Light–dark box (LDB); type: in vivo; details: for LDB. Time spent in lit compartment, Median: 5 min session, exp group; for LDB, effect on time spent in the lit compartment vs vehicle: most informative dosage, Figure 2C
# Protocol: as §1, §2
# Danio rerio [4] = experiment: Social preference test (SPT); type: in vivo; details: for SPT. Time spent out of shoaling zone, Median: 5 min session, exp group; for SPT, effect on time spent out of the shoaling zone vs vehicle: most informative dosage, Figure 2D
# Protocol: as §1, §2
# [5] = competition of [3H]-LCGA-17 (16 nM) binding, rat brain membranes, Table S1
# [6] = rat brain membranes, result in words
# [7] = competition of [3H]-LCGA-17 binding to rat brain (cortical) membranes, text and Figure 3
compound,measurement,setting,value
CCCN(CCC)C1CCc2ccc(O)cc2C1 (centres unmarked) [7-OH-DPAT],cross-reactivity with / competition at the [3H]-LCGA-17 binding site,[1],no cross-reactivity
same,IC50,[1]; [5],> 100 µM
CC(=O)[C@H]1CC[C@H]2[C@@H]3CC[C@H]4C[C@H](O)CC[C@]4(C)[C@H]3CC[C@]12C [Allopregnanolone],IC50,[1],> 100 µM
same,cross-reactivity with / competition at the [3H]-LCGA-17 binding site,[1],distinct
NC(N)=NCCCCN=C(N)N [Arcaine],IC50,[1]; [5],> 100 µM
same,cross-reactivity with / competition at the [3H]-LCGA-17 binding site,[1]; [6],no cross-reactivity
NCC(CC(=O)O)c1ccc(Cl)cc1 (centres unmarked) [Baclofen],IC50,[1]; [5],> 100 µM
same,cross-reactivity with / competition at the [3H]-LCGA-17 binding site,[1]; [6],no cross-reactivity
CC(C)(C)OC(=O)c1ncn2c1[C@@H]1CCCN1C(=O)c1c(Br)cccc1-2 [Bretazenil],IC50,[1],> 100 µM
same,cross-reactivity with / competition at the [3H]-LCGA-17 binding site,[1],distinct
COc1ccc(-n2nc3c4ccccc4[nH]cc-3c2=O)cc1 [CGS-9895],IC50,[1]; [5],> 100 µM
same,cross-reactivity with / competition at the [3H]-LCGA-17 binding site,[1]; [6],no cross-reactivity
CCCCCCN(CCCCCC)C(=O)Cc1c(-c2ccc(F)cc2)[nH]c2ccccc12 [FGIN-1-27],cross-reactivity with / competition at the [3H]-LCGA-17 binding site,[1],distinct
same,IC50,[1]; [5],> 100 µM
"NCCCC(=O)O [GABA, γ-aminobutyric acid]",cross-reactivity with / competition at the [3H]-LCGA-17 binding site,[1]; [6],no cross-reactivity
Fc1ccc(C(OCCN2CCN(CCCc3ccccc3)CC2)c2ccc(F)cc2)cc1 [GBR-12909],IC50,[1]; [5],> 100 µM
NCC1(CC(=O)O)CCCCC1 [Gabapentin],IC50,[1]; [7],~11 µM
same,IC50,"[1]; competition of [3H]-LCGA-17 binding to rat brain (cortical) membranes, text and Figure 3, listed as gabapentin",11 µM
COc1ccc(-c2ccc(=N)n(CCCC(=O)O)n2)cc1 [Gabazine],IC50,[1]; [5],> 100 µM
same,cross-reactivity with / competition at the [3H]-LCGA-17 binding site,[1]; [6],no cross-reactivity
"Oc1noc2c1CCNC2 [Gaboxadol (THIP), Gaboxadol]",IC50,[1],> 100 µM
same,cross-reactivity with / competition at the [3H]-LCGA-17 binding site,[1],distinct
N[C@@H](CCC(=O)O)C(=O)O [Glutamate],IC50,[1]; [5],> 100 µM
same,cross-reactivity with / competition at the [3H]-LCGA-17 binding site,[1]; [6],no cross-reactivity
NCC(=O)O [Glycine],IC50,[1],> 100 µM
same,cross-reactivity with / competition at the [3H]-LCGA-17 binding site,[1],no cross-reactivity
O=C(CCCN1CCC(O)(c2ccc(Cl)cc2)CC1)c1ccc(F)cc1 [Haloperidol],cross-reactivity with / competition at the [3H]-LCGA-17 binding site,[1]; [6],no cross-reactivity
CC(C(O)c1ccc(O)cc1)N1CCC(Cc2ccccc2)CC1 (centres unmarked) [Ifenprodil],IC50,[1]; [5],> 100 µM
O=C(c1ccc(F)cc1)C1CCN(CCn2c(=O)[nH]c3ccccc3c2=O)CC1 [Ketanserin],IC50,[1]; [5],> 100 µM
same,cross-reactivity with / competition at the [3H]-LCGA-17 binding site,[1]; [6],no cross-reactivity
N[C@@]1(C(=O)O)CC[C@H]2[C@H](C(=O)O)[C@H]21 [LY-354740],IC50,[1]; [5],> 100 µM
same,cross-reactivity with / competition at the [3H]-LCGA-17 binding site,[1]; [6],no cross-reactivity
Cn1ncnc1COc1nn2c(-c3c(F)cccc3F)nnc2cc1C1CCC1 [MK0343],IC50,[1]; [5],> 100 µM
same,cross-reactivity with / competition at the [3H]-LCGA-17 binding site,[1]; [6],distinct
NCc1cc(=O)[nH]o1 [Muscimol],cross-reactivity with / competition at the [3H]-LCGA-17 binding site,[1],no cross-reactivity
same,IC50,[1]; [5],> 100 µM
CN1CCC[C@H]1c1cccnc1 [Nicotine],IC50,[1],> 100 µM
same,cross-reactivity with / competition at the [3H]-LCGA-17 binding site,[1],no cross-reactivity
CCC(C)N(C)C(=O)c1cc2ccccc2c(-c2ccccc2Cl)n1 (centres unmarked) [PK-11195],IC50,[1]; [5],> 100 µM
CC(=O)[C@H]1CC[C@H]2[C@@H]3CC=C4C[C@@H](O)CC[C@]4(C)[C@H]3CC[C@]12C [Pregnenolone],IC50,[1]; [5],> 100 µM
C[C@@H](CN1CCC(Cc2ccccc2)CC1)[C@@H](O)c1ccc(O)cc1 [Ro-256981],IC50,[1]; [5],> 100 µM
same,cross-reactivity with / competition at the [3H]-LCGA-17 binding site,[1]; [6],no cross-reactivity
Cn1c2ccc(F)cc2c2c(C(=O)N3CCCC3)cn(-c3ccccc3)c(=O)c21 [SL 651498],IC50,[1]; [5],> 100 µM
same,cross-reactivity with / competition at the [3H]-LCGA-17 binding site,[1]; [6],distinct
O=C(N/N=C/c1ccccc1O)c1ccccc1O [Salicylidene salicylhydrazide],cross-reactivity with / competition at the [3H]-LCGA-17 binding site,[1],distinct
same,IC50,[1]; [5],> 100 µM
NCCCNCCCCNCCCN [Spermine],IC50,[1]; [5],> 100 µM
same,cross-reactivity with / competition at the [3H]-LCGA-17 binding site,[1]; [6],no cross-reactivity
O=C(CCCN1CCC2(CC1)C(=O)NCN2c1ccccc1)c1ccc(F)cc1 [Spiperone],cross-reactivity with / competition at the [3H]-LCGA-17 binding site,[1]; [6],no cross-reactivity
CCN1CCCC1CNC(=O)c1cc(S(N)(=O)=O)ccc1OC (centres unmarked) [Sulpiride],IC50,[1]; [5],> 100 µM
same,cross-reactivity with / competition at the [3H]-LCGA-17 binding site,[1]; [6],no cross-reactivity
CC1(C)CC(=O)c2c(SCCO)sc(-c3nccs3)c2C1 [TB21007],IC50,[1]; [5],> 100 µM
same,cross-reactivity with / competition at the [3H]-LCGA-17 binding site,[1]; [6],distinct
C[C@]12CC[C@@H](O)C[C@H]1CC[C@@H]1[C@@H]2CC[C@]2(C)[C@@H](C(=O)CO)CC[C@@H]12 [THDOC],cross-reactivity with / competition at the [3H]-LCGA-17 binding site,[1],distinct
same,IC50,[1]; [5],> 100 µM
Cc1ccc(-c2nc3ccc(C)cn3c2CC(=O)N(C)C)cc1 [Zolpidem],IC50,[1],> 100 µM
"COCCCC/C(=N\OCCN)c1ccc(C(F)(F)F)cc1 [fluvoxamine, Fluvoxamine]","NTT. Time spent in upper half of tank, Median",Danio rerio [2]; 5 mg/kg,41 s
same,"NTT. Distance traveled, Median",Danio rerio [2]; 5 mg/kg,1267 cm
same,"NTT. Time spent in upper half of tank, Median",Danio rerio [2]; 10 mg/kg,32 s
same,"NTT. Distance traveled, Median",Danio rerio [2]; 10 mg/kg,1313 cm
same,"NTT, effect on time spent in the upper half of the tank vs vehicle","Danio rerio [2]; most informative dosage, Figure 2A: LCGA peptides 10 mg/kg, fluvoxamine 5 mg/kg, diazepam 5 mg/kg",anxiolytic-like effect
same,"LDB. Time spent in lit compartment, Median",Danio rerio [3]; 5 mg/kg,118 s
same,"LDB. Time spent in lit compartment, Median",Danio rerio [3]; 10 mg/kg,94 s
same,"LDB, effect on time spent in the lit compartment vs vehicle",Danio rerio [3],Neither fluvoxamine nor the other LCGA peptides affected the behavior
same,"SPT. Time spent out of shoaling zone, Median",Danio rerio [4]; 5 mg/kg,90 s
same,"SPT. Time spent out of shoaling zone, Median",Danio rerio [4]; 10 mg/kg,84 s
same,"SPT, effect on time spent out of the shoaling zone vs vehicle",Danio rerio [4],failed to affect behavior
O=C(O)C1=CCNCC1 [isoguvacine],cross-reactivity with / competition at the [3H]-LCGA-17 binding site,[1]; [6],distinct
AspLysThrGlu (DKTE; printed: AspLysThrGlu) [LCGA-26],"NTT. Time spent in upper half of tank, Median",Danio rerio [2]; 1 mg/kg i.p.,58 s
same,"NTT. Distance traveled, Median",Danio rerio [2]; 1 mg/kg i.p.,1365 cm
same,"NTT. Time spent in upper half of tank, Median",Danio rerio [2]; 10 mg/kg,72 s
same,"NTT. Distance traveled, Median",Danio rerio [2]; 10 mg/kg,1445 cm
same,"LDB. Time spent in lit compartment, Median",Danio rerio [3]; 1 mg/kg i.p.,215 s
same,"LDB. Time spent in lit compartment, Median",Danio rerio [3]; 10 mg/kg,243 s
same,"SPT. Time spent out of shoaling zone, Median",Danio rerio [4]; 1 mg/kg i.p.,20 s
same,"SPT. Time spent out of shoaling zone, Median",Danio rerio [4]; 10 mg/kg,27 s
PheLeuProTyr (FLPY; printed: PheLeuProTyr) [LCGA-83],"NTT. Time spent in upper half of tank, Median",Danio rerio [2]; 1 mg/kg i.p.,73 s
same,"NTT. Distance traveled, Median",Danio rerio [2]; 1 mg/kg i.p.,1500 cm
same,"NTT. Time spent in upper half of tank, Median",Danio rerio [2]; 10 mg/kg,76 s
same,"NTT. Distance traveled, Median",Danio rerio [2]; 10 mg/kg,1589 cm
same,"LDB. Time spent in lit compartment, Median",Danio rerio [3]; 1 mg/kg i.p.,128 s
same,"LDB. Time spent in lit compartment, Median",Danio rerio [3]; 10 mg/kg,249 s
same,"LDB, effect on time spent in the lit compartment vs vehicle",Danio rerio [3],Neither fluvoxamine (5 mg/kg) nor LCGA-59 and LCGA-83 (10 mg/kg) affected the behavior
same,"SPT. Time spent out of shoaling zone, Median",Danio rerio [4]; 1 mg/kg i.p.,37 s
same,"SPT. Time spent out of shoaling zone, Median",Danio rerio [4]; 10 mg/kg,46 s
same,"SPT, effect on time spent out of the shoaling zone vs vehicle",Danio rerio [4],failed to affect behavior
TrpAspGlnVal (WDQV; printed: TrpAspGlnVal) [LCGA-59],"NTT. Time spent in upper half of tank, Median",Danio rerio [2]; 1 mg/kg i.p.,69 s
same,"NTT. Distance traveled, Median",Danio rerio [2]; 1 mg/kg i.p.,1730 cm
same,"NTT. Time spent in upper half of tank, Median",Danio rerio [2]; 10 mg/kg,74 s
same,"NTT. Distance traveled, Median",Danio rerio [2]; 10 mg/kg,1636 cm
same,"LDB. Time spent in lit compartment, Median",Danio rerio [3]; 1 mg/kg i.p.,74 s
same,"LDB. Time spent in lit compartment, Median",Danio rerio [3]; 10 mg/kg,87 s
same,"LDB, effect on time spent in the lit compartment vs vehicle",Danio rerio [3],Neither fluvoxamine (5 mg/kg) nor LCGA-59 and LCGA-83 (10 mg/kg) affected the behavior
same,"SPT. Time spent out of shoaling zone, Median",Danio rerio [4]; 1 mg/kg i.p.,52 s
same,"SPT. Time spent out of shoaling zone, Median",Danio rerio [4]; 10 mg/kg,88 s
same,"SPT, effect on time spent out of the shoaling zone vs vehicle",Danio rerio [4],failed to affect behavior
pregnenolone sulfate [PREGS],IC50,[1]; [7],> 100 µM
same,cross-reactivity with / competition at the [3H]-LCGA-17 binding site,[1]; [6],failed to compete

# — paper PMC8372404 (Frontiers in Neuroscience, 2021)
